Among the data in patent publication US7671054B1, “Reverse-turn mimetics and method relating thereto” (Choongwae Pharma Corporation, priority 2001, dated 2010) are GI50 values, retold here.

A word on the GI50: it is the concentration giving 50% growth inhibition.

The first assay has as its system SW480 cells. Nature of the assay: Growth inhibition assay (MTS). Particulars: Homo sapiens, SW480, 48 h, Table 5; SW480 cells, 48 hours treatment, MTS; read-out: Growth Inhibition (GI50, uM) SW480. The assay is classed as cell-based. In short, it runs like this:
(§1)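 Cells seeded at 10^4 per well, grown 24 h at 37° C, then exposed to compound at various concentrations for 48 hours. MTS added for 2 h; absorbance at 490 nm gave viability, with cytotoxicity calculated per concentration against pre-treatment reading.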
Consider `C=CCN1CC(=O)N2[C@@H](CN([C@H](C)c3ccccc3)C(=O)[C@@H]2Cc2ccc(O)cc2)N1C(=O)NCc1ccccc1` [Compound 154], for which the GI50 stood at 0.7 ± 0.2 µM.
Same read-out and setting: next, `CN1CC(=O)N2[C@@H](Cc3ccc(O)cc3)C(=O)N(Cc3ccc(Cl)c(Cl)c3)C[C@@H]2N1C(=O)NCc1ccccc1` [Compound 4]: 1.99 µM; `CN(C)c1cccc(CN2C[C@H]3N(C(=O)CN(C)N3C(=O)NCc3ccccc3)[C@@H](Cc3ccc(O)cc3)C2=O)c1` [Compound 55]: 4.6 ± 0.5 µM.
Consider `C#CCn1ncc2ccc(CN3C[C@H]4N(C(=O)CN(C)N4C(=O)NCc4ccccc4)[C@@H](Cc4ccc(O)cc4)C3=O)cc21` [Compound 68], for which the GI50 turned out to be 3.7 ± 0.2 µM.
The same measure, in the same setting: the same measure for `CCCN1CC(=O)N2[C@@H](Cc3ccc(NC=O)cc3)C(=O)N(Cc3ccc(F)cc3F)C[C@@H]2N1C(=O)NCc1ccccc1` [Compound 130]: 17.3 ± 1.2 µM; for `CN1CC(=O)N2[C@@H]([C@H](O)c3ccc(O)cc3)C(=O)N(Cc3ccc(F)cc3F)C[C@@H]2N1C(=O)NCc1ccccc1` [Compound 86]: 9.6 ± 1.6 µM.
On the same count and under the same terms, the same measure for `C=CCN1CC(=O)N2[C@@H](Cc3ccc(O)cc3)C(=O)N(Cc3cccc4scnc34)C[C@@H]2N1C(=O)NCc1ccccc1` [Compound 152]: 0.7 ± 0.1 µM; for `C[C@H]1[C@H]2N(C(=O)CN(C)N2C(=O)NCc2ccccc2)[C@@H](Cc2ccc(O)cc2)C(=O)N1Cc1ccc(Cl)c(N(C)C)c1` [Compound 57]: 3.1 ± 0.3 µM.
As to `C#CCN1CC(=O)N2[C@@H](Cc3ccc(O)cc3)C(=O)N(Cc3ccc4ncsc4c3)C[C@@H]2N1C(=O)NCc1ccccc1` [Compound 113], the GI50 turned out to be 6.8 ± 1.4 µM.
With `C=CCN1CC(=O)N2[C@@H](Cc3ccc(O)cc3)C(=O)N(Cc3cccc(NC)c3)C[C@@H]2N1C(=O)NCc1ccccc1` [Compound 163], the GI50 came to 2.4 ± 0.2 µM.
Same read-out and setting: the same measure for `C#CCN1CC(=O)N2[C@@H](Cc3ccc(O)cc3)C(=O)N(Cc3ccc(F)cc3F)C[C@@H]2N1C(=O)NCc1ccccc1` [Compound 116]: 2.8 ± 0.9 µM.
Same read-out and setting: next, `C[C@H](c1ccc(Cl)c2cccnc12)N1CC2N(C(=O)CN(C)N2C(=O)NCc2ccccc2)[C@@H](Cc2ccc(O)cc2)C1=O` (stereo partly drawn) [Compound 168]: 6.2 ± 0.8 µM; `CN1CC(=O)N2[C@@H](Cc3ccc(O)cc3)C(=O)N(Cc3cccc(OCCN4CCOCC4)c3)C[C@@H]2N1C(=O)NCc1ccccc1` [Compound 102]: 2.5 ± 0.4 µM; `CN1CC(=O)N2C(CN(Cc3ccc(Cl)cc3Cl)C(=O)[C@@H]2Cc2ccc(O)cc2)N1C(=O)NCc1ccccc1` (stereo partly drawn) [Compound 18]: 4.63 µM.
The same measure, in the same setting: next, `CN(C1CC1)C1CC=CC=C1CN1C[C@H]2N(C(=O)CN(C)N2C(=O)NCc2ccccc2)[C@@H](Cc2ccc(O)cc2)C1=O` (stereo partly drawn) [Compound 31]: 8.1 ± 0.7 µM; `CN1CC(=O)N2[C@@H](Cc3ccc(O)cc3)C(=O)N(Cc3ccc4ncsc4c3)C[C@@H]2N1C(=O)NCc1ccccc1` [Compound 54]: 7.1 ± 0.5 µM.
With `Cc1ccc(N(C)C)c(CN2C[C@H]3N(C(=O)CN(C)N3C(=O)NCc3ccccc3)[C@@H](Cc3ccc(O)cc3)C2=O)c1` [Compound 29], the GI50 came out at 16 µM.
Still for that read-out and setting: the same measure for `C=CCN1CC(=O)N2[C@@H](Cc3ccc(O)cc3)C(=O)N(Cc3cccc4c3OCCN4C)C[C@@H]2N1C(=O)NCc1ccccc1` [Compound 128]: 0.9 ± 0.1 µM; for `CN(C)c1ccc(C[C@H]2C(=O)N(Cc3cccc4ccccc34)C[C@H]3N2C(=O)CN(C)N3C(=O)NCc2ccccc2)cc1` [Compound 43]: more than 50 µM.

Staying with this assay, now noted: Homo sapiens; Table 5; SW480 cells, 48 hours treatment, MTS; read-out: Growth Inhibition (GI50, uM) SW480.
As for `C=CCN1CC(=O)N2[C@@H](Cc3ccc(OP(=O)(O)O)cc3)C(=O)N(Cc3ccc(Cl)c(N(C)C)c3)C[C@@H]2N1C(=O)NCc1ccccc1` [Compound 131], the GI50 was 2.3 ± 0.1 µM.

The assay is the same for the next values; noted with them: Homo sapiens; Table 5; SW480 cells; the cell prints nM; read-out: Growth Inhibition (GI50) SW480.
Consider `CCOP(=O)(CC(=O)Nc1ccc(C[C@H]2C(=O)N(Cc3cccc4ccccc34)C[C@H]3N2C(=O)CN(C)N3C(=O)NCc2ccccc2)cc1)OCC` [Compound 59], for which the concentration for 50% growth inhibition (GI50) is more than 0.05 µM.

A further assay concerns HCT116 cells. Nature of the assay: Growth inhibition assay (MTS). The assay is classed as cell-based. Particulars: Homo sapiens, HCT-116, 48 h, Table 5; HCT116 cells, 48 hours treatment, MTS; read-out: Growth Inhibition (GI50, uM) HCT116. Put shortly:
as §1
As for `C=CCN1CC(=O)N2[C@@H](CN([C@H](C)c3ccccc3)C(=O)[C@@H]2Cc2ccc(O)cc2)N1C(=O)NCc1ccccc1` [Compound 154], the 50% growth inhibitory concentration (GI50) is 0.7 ± 0.2 µM.
The same measure, in the same setting: the same measure for `CN1CC(=O)N2[C@@H](Cc3ccc(O)cc3)C(=O)N(Cc3ccc(Cl)c(Cl)c3)C[C@@H]2N1C(=O)NCc1ccccc1` [Compound 4]: 1.91 µM; for `CN(C)c1cccc(CN2C[C@H]3N(C(=O)CN(C)N3C(=O)NCc3ccccc3)[C@@H](Cc3ccc(O)cc3)C2=O)c1` [Compound 55]: 4.1 ± 0.7 µM; for `C#CCn1ncc2ccc(CN3C[C@H]4N(C(=O)CN(C)N4C(=O)NCc4ccccc4)[C@@H](Cc4ccc(O)cc4)C3=O)cc21` [Compound 68]: 3.8 ± 0.6 µM.
Same read-out and setting: the same measure for `CCCN1CC(=O)N2[C@@H](Cc3ccc(NC=O)cc3)C(=O)N(Cc3ccc(F)cc3F)C[C@@H]2N1C(=O)NCc1ccccc1` [Compound 130]: 10.7 ± 1.7 µM.
Same read-out and setting: next, `CN1CC(=O)N2[C@@H]([C@H](O)c3ccc(O)cc3)C(=O)N(Cc3ccc(F)cc3F)C[C@@H]2N1C(=O)NCc1ccccc1` [Compound 86]: 6.5 ± 0.6 µM; `C=CCN1CC(=O)N2[C@@H](Cc3ccc(O)cc3)C(=O)N(Cc3cccc4scnc34)C[C@@H]2N1C(=O)NCc1ccccc1` [Compound 152]: 0.6 ± 0.1 µM.
For the compound `C[C@H]1[C@H]2N(C(=O)CN(C)N2C(=O)NCc2ccccc2)[C@@H](Cc2ccc(O)cc2)C(=O)N1Cc1ccc(Cl)c(N(C)C)c1` [Compound 57], the GI50 came out at 5.1 ± 0.3 µM.
On the same count and under the same terms, the same measure for `C#CCN1CC(=O)N2[C@@H](Cc3ccc(O)cc3)C(=O)N(Cc3ccc4ncsc4c3)C[C@@H]2N1C(=O)NCc1ccccc1` [Compound 113]: 3.7 ± 0.6 µM.
Same read-out and setting: the same measure for `C=CCN1CC(=O)N2[C@@H](Cc3ccc(O)cc3)C(=O)N(Cc3cccc(NC)c3)C[C@@H]2N1C(=O)NCc1ccccc1` [Compound 163]: 2.3 ± 0.4 µM; for `C#CCN1CC(=O)N2[C@@H](Cc3ccc(O)cc3)C(=O)N(Cc3ccc(F)cc3F)C[C@@H]2N1C(=O)NCc1ccccc1` [Compound 116]: 1.7 ± 0.1 µM.
Same read-out and setting: the same measure for `C[C@H](c1ccc(Cl)c2cccnc12)N1CC2N(C(=O)CN(C)N2C(=O)NCc2ccccc2)[C@@H](Cc2ccc(O)cc2)C1=O` (stereo partly drawn) [Compound 168]: 6.5 ± 0.3 µM; for `CN1CC(=O)N2[C@@H](Cc3ccc(O)cc3)C(=O)N(Cc3cccc(OCCN4CCOCC4)c3)C[C@@H]2N1C(=O)NCc1ccccc1` [Compound 102]: 4.9 ± 1.2 µM.
Consider `CN1CC(=O)N2C(CN(Cc3ccc(Cl)cc3Cl)C(=O)[C@@H]2Cc2ccc(O)cc2)N1C(=O)NCc1ccccc1` (stereo partly drawn) [Compound 18], for which the GI50 was 3.52 µM.
The same measure, in the same setting: next, `CN(C1CC1)C1CC=CC=C1CN1C[C@H]2N(C(=O)CN(C)N2C(=O)NCc2ccccc2)[C@@H](Cc2ccc(O)cc2)C1=O` (stereo partly drawn) [Compound 31]: 5 ± 1 µM; `CN1CC(=O)N2[C@@H](Cc3ccc(O)cc3)C(=O)N(Cc3ccc4ncsc4c3)C[C@@H]2N1C(=O)NCc1ccccc1` [Compound 54]: 4.9 ± 0.7 µM; `Cc1ccc(N(C)C)c(CN2C[C@H]3N(C(=O)CN(C)N3C(=O)NCc3ccccc3)[C@@H](Cc3ccc(O)cc3)C2=O)c1` [Compound 29]: 7.93 µM.
As for `C=CCN1CC(=O)N2[C@@H](Cc3ccc(O)cc3)C(=O)N(Cc3cccc4c3OCCN4C)C[C@@H]2N1C(=O)NCc1ccccc1` [Compound 128], the GI50 was found to be 1 ± 0.03 µM.
The same measure, in the same setting: next, `CN(C)c1ccc(C[C@H]2C(=O)N(Cc3cccc4ccccc34)C[C@H]3N2C(=O)CN(C)N3C(=O)NCc2ccccc2)cc1` [Compound 43]: 39.1 µM.

Still in this assay, the particulars now being: Homo sapiens, HCT-116; Table 5; HCT116 cells, 48 hours treatment, MTS; read-out: Growth Inhibition (GI50, uM) HCT116.
`C=CCN1CC(=O)N2[C@@H](Cc3ccc(OP(=O)(O)O)cc3)C(=O)N(Cc3ccc(Cl)c(N(C)C)c3)C[C@@H]2N1C(=O)NCc1ccccc1` [Compound 131]: the 50% growth inhibitory concentration (GI50) came out at 1.7 ± 0.5 µM.
Consider `CCOP(=O)(CC(=O)Nc1ccc(C[C@H]2C(=O)N(Cc3cccc4ccccc34)C[C@H]3N2C(=O)CN(C)N3C(=O)NCc2ccccc2)cc1)OCC` [Compound 59], for which the GI50 came to 55.1 ± 33.7 µM.
